Experimental findings from a melting point compilation (Tetko et al.; mined from patent text by program, amines drawn as free bases though some values may be those of a salt) are described below.

Structures are written as SMILES.

Regarding `COC(=O)c1ccc2nc3c(c(C)nn3-c3ccccn3)c(Cl)c2c1`, the melting point (in general, the temperature, or range, at which the solid turns liquid) was 199 to 200 °C.
`COc1ccc(Cn2cnc3c(-c4ccco4)nc(OC(C)C)nc32)cc1` displayed a melting point of 145 to 146 °C.
The molecule `CNC(=O)c1cc2nc(C(F)(F)F)ccc2c(C)c1NC(=O)c1cc(C(F)(F)F)nn1-c1ncccc1Cl` displayed a melting point of 227 to 230 °C.
For `COc1ccccc1OCC1SCCN1C(=O)CI` (stereo not given), the melting point fell in the range of 81 to 83 °C.
Regarding `Fc1ccc(Cn2c(NC3CCN(CCSc4nc5cccnc5s4)CC3)nc3ccccc32)cc1`, the melting point amounted to 160 °C.
As for `CCOC(=O)c1c(CN(CC)CC)nc2sc(C)c(C)c2c1-c1ccc(Cl)cc1`, the figure is 98 to 100 °C; as for `COC(=O)c1cc(-c2ccccc2Cl)c(=O)n2ncc3ccc(Cl)cc3c12`, 200 to 202 °C.
As for `CCOC(=O)C(=CN)C(=O)c1cc(F)c(F)c(F)c1F`, the figure is 118 to 119 °C; as for `CC(=O)Oc1ccc(C2=NNC(=O)CC2C)cc1` (stereo not given), 152 to 153 °C; as for `Nc1nc(NCCOc2ccc(O)cc2)nc2nc(-c3ccco3)nn12`, 266 to 268 °C.
`O=C(O)COc1ccc(SCc2ccc(-c3ccc(C(F)(F)F)cn3)cc2)c2c1CCCO2`: the melting point is 178 to 179 °C.
The value for `CCCCCCCCCOc1ccc(-c2ccc(Br)cc2)c(F)c1F` was 46 to 47.5 °C; that for `CN1CC(CO)CC2(OCCO)c3cccc4[nH]cc(c34)CC12` (stereo not given) was 178 to 180 °C; that for `CC1=C(c2ccc(Cl)cc2)n2ncc(C(N)=O)c2NC1` was 210 to 212 °C.
`C#CCOc1cc(F)ccc1[N+](=O)[O-]`: the melting point fell in the range of 38 to 39 °C.
As for `Cc1ccc2c(c1)CC(=O)c1cc(C)ccc1O2`, the melting point fell in the range of 62 to 62.5 °C.
With `CCc1cc(Cl)c(C)c(Oc2c(C)cc(C)cc2C)n1`, the melting point lay within 42 to 44 °C.
For the molecule `CC(=O)Nc1ccc2c(c1)CC(CN1CCC(c3c[nH]c4cc(Cl)ccc34)CC1)C2` (stereo not given), the melting point lay in the range of 151 to 152 °C.
As for `O=C(Nc1cc(Cl)cc(Cl)c1)c1ccccc1SSc1ccccc1C(=O)Nc1cc(Cl)cc(Cl)c1`, the figure is 235 to 236 °C.
The value for `O=C[C@H](OCc1ccccc1)[C@@H](OCc1ccccc1)[C@H](OCc1ccccc1)[C@H](O)COCc1ccccc1` was 151 °C; that for `OC1CSC(Oc2cncc(-c3cc4ccccc4o3)c2)C(O)C1O` (stereo not given) was 210 °C; that for `CCCCCC(=O)Nc1cccc2c1C1(COc3cc4c(cc31)OCCO4)C(=O)N2C` (stereo not given) was 151 to 153 °C.
The value for `CCOc1cc(N)c(Cl)cc1C(=O)NCC1CN(CC2CCN(C#N)CC2)CCO1` (stereo not given) was 197 °C.
`O=C(NC(Cc1ccccc1)C(=O)O)c1cc(-c2ccc(OCc3ccccc3)cc2)[nH]n1` (stereo not given): the melting point is 196 to 200 °C.
The value for `CC1CCC(c2ccc(Cl)c(C(F)(F)F)c2)=NN1S(=O)(=O)c1ccc(I)cc1` (stereo not given) was 157 to 158 °C; that for `O=C1NC(=S)SC1=Cc1ccccc1C(=O)O` was 276 to 278 °C; that for `NC(=O)NC1CCC(OC(=O)c2ccccc2)c2sccc21` (stereo not given) was 199 to 205 °C.
For the molecule `N=C(Nc1ccc(Cl)cc1)Nc1ncccc1OCc1c(F)cccc1F`, the melting point was in the range of 146 to 148 °C.
On to `COC(=O)c1nccc(N)n1`, for which the melting point was in the range of 140 to 142 °C.
As to `CON(C)C(=O)c1ccc(-c2ccc(CBr)cc2)cc1`, the melting point fell in the range of 105 to 106 °C.
Turning to `O=C(NCC(F)(F)F)c1ccc(-c2ccc3nnn(Cc4ccc5ncccc5c4)c3n2)cc1F`, the melting point lay in the range of 194 to 196 °C.
As for `NS(=O)(=O)c1ccc(C2=C(c3ccc(Cl)cc3)CCC2)cc1`, the figure is 177 to 178 °C; as for `O=c1[nH]c2ccc3c(c2[nH]c1=O)NCCC3`, more than 300 °C; as for `CN1CC(CCN2CCOCC2)N(C)c2nc3ccccc3n2C1=O` (stereo not given), 149 to 152 °C.
`Cc1nnc(-c2ccc3occ(-c4ccc(CS(C)(=O)=O)cc4)c3c2)o1` registered a melting point of 250 to 251 °C.
As for `Nc1nc(OCc2cccs2)ncc1F`, the melting point lay in the range of 92 to 94 °C.
As for `CCCCCCCCC(=O)Oc1cc2c(s1)CCN(C(C(=O)C1CC1)c1ccccc1F)C2` (stereo not given), the figure is 45 to 48 °C; as for `COC(=O)n1cc(Cl)c(-c2cc(Cl)cc(Cl)c2)n1`, 144 °C.
The value for `CC1(C)SC2C(NC(=O)Cc3ccccc3)C(=O)N2C1c1nnn[nH]1` (stereo not given) was 168 to 170 °C; that for `COc1ccc2c(c1)C(=O)c1ccc(Nc3ccc(F)c(F)c3F)cc1CC2` was 128 °C.
The value for `O=[N+]([O-])c1c(NC2CC2)ncnc1N1CCc2ccccc2CC1` was 135 to 138 °C; that for `CCCC(=O)c1cnc2c(OC)cccc2c1Nc1c(C)cc(O)cc1C` was 247 to 248 °C; that for `COC(=O)CCc1ccc(-n2cc(C)n(-c3ccc(C(=N)N)cc3)c2=O)cc1` was 95 to 100 °C.
Molecule `Cc1cc(-c2cccc(C3=Nc4cc(O)c(-c5ccccc5F)cc4NC(=O)C3)c2)on1` displayed a melting point of 237 °C.
Regarding `COc1c(C)cc2c(c1C)Cc1c-2[nH]c2ccccc12`, the melting point was determined as 177 °C.
`CC(C)(C)OC(=O)NC1(CCOS(C)(=O)=O)CC1` registered a melting point of 88 to 89 °C.
The value for `CCc1cccc(CC(=O)O)c1OCCCn1cc(C(=O)NCc2ccc(C(F)(F)F)cc2)c(OC(C)C)n1` was 108 °C; that for `COCON1C(=O)C(=C/c2ccccc2)/C(=C\c2cc(OC)c(OC)c(OC)c2)C1=O` was 175 to 177 °C; that for `CC(C)OC(=O)C(=C1SCCS1)c1ccc(F)cc1` was 106 to 107 °C.
The value for `Clc1ccc(NN=Cc2ccccc2)cc1` was 122 to 123 °C.
Turning to `CCN(CC)C(=O)C1CCN(Cc2cnc3cc(NC(=O)c4ccc(-c5ccc(F)cc5)cc4)c(C)cc3c2)CC1`, the melting point was determined as 203 °C.
The value for `O=c1cc(-c2cc[nH]n2)oc2ccc(Cl)cc12` was 217 to 219 °C; that for `CC1=NS(=O)(=O)N(C(c2ccccc2)c2ccccc2)C=C1` was 174 to 177 °C.
The value for `Cc1cc(C)c2c(c1)C=C(/C=C/C=C/C=C/C(=O)O)C(C)(C)O2` was 200 to 202 °C.
As for `O=C(OCC1OCCS1=O)c1ccccc1` (stereo not given), the figure is 70 to 72 °C; as for `Cc1ccc(Sc2ccc(C(=O)O)cc2)cc1`, 105 to 107 °C; as for `O=[N+]([O-])c1ccc2[nH]c(C(F)(F)F)c([N+](=O)[O-])c2c1`, 225 to 228 °C.
Consider `O=C(O)CCSCc1nccc2ccccc12`, for which the melting point was 126 to 130 °C.
For the molecule `CCOC(=O)C(NC(C)=O)(C(=O)OCC)c1ccc(Cl)cn1`, the melting point was 89 to 90 °C.
The value for `CCCCCCCOc1ccc(C2CC(CCCCCC)C(=O)O2)cc1` (stereo not given) was 45.9 to 47 °C; that for `c1cn(-c2nc(N3CCOCC3)nc(-n3ccnc3)n2)cn1` was 268 to 270 °C; that for `O=C(NC(=O)C(c1ccccc1)c1ccccc1)OCCCCc1ccccc1` was 118 °C.
Molecule `COc1ccc2nc(NC(=O)C(CC3CCCC3)c3ccc(S(=O)(=O)N4CCN(C(C)=O)CC4)cc3)sc2n1` (stereo not given) returned a melting point of 215 to 217 °C.
`CCOC(=O)C1=C(C)NC(C)=C(C(=O)OCC)C1c1cc([N+](=O)[O-])ccc1OCCCCNCC(O)COc1ccccc1` (stereo not given) displayed a melting point of 141 to 143 °C.
As to `CC(NC(N)=C[N+](=O)[O-])C1=CCC=CC1` (stereo not given), the melting point fell in the range of 120 to 125 °C.
The value for `N=C(Nc1ccc(Cl)cc1)NC1CCCCC1` was 187 to 190 °C; that for `CC12CCC3C(=C1CCC2=O)C=CC1=CC(=O)CCC13CO` (stereo not given) was 264 to 265 °C; that for `CN(C)Cc1cccc(OCCCNC(=O)COC(=O)c2ccc(Cl)c(Cl)c2)c1` was 48 to 50 °C.
As for `CCCCCCc1cn(C)cc(-c2cccc(C(F)(F)F)c2)c1=O`, the figure is 89.5 to 90.5 °C; as for `O=C(O)C12CCCCC1CSc1ccccc12` (stereo not given), 200 to 203 °C.
In the case of `Cc1nc2cnc3cccnc3c2n1CC(C)C`, the melting point fell in the range of 110 to 111 °C.
For `O=C(c1ccc(N2CCOCC2)cc1O)C(F)(F)F`, the melting point lay within 81 to 82 °C.
The molecule `Cc1cc(OCCCC(=O)N(CCCCO)C2CCCCC2)cc(C=O)c1[N+](=O)[O-]` came in with a melting point of 72 to 73 °C.
Molecule `Cc1ccc2[nH]c3c(cc(-c4cccc(C=O)c4)c(=O)n3C)c2c1` showed a melting point of 280 °C.
Regarding `COc1cc(OC)c(-c2c[nH]c(C3CC3)n2)cc1C=CC(=O)c1ccc(S(N)(=O)=O)cc1`, the melting point lay in the range of 156 to 160 °C.
As for `NC(=O)CCCCCc1cccnc1`, the figure is 64 to 65 °C; as for `CCCc1c(OCC2COc3cc(CC(=O)OC)ccc3O2)ccc(C(C)=O)c1O` (stereo not given), 72 to 75 °C.
For the molecule `O=[N+]([O-])c1cccc(O)c1CO`, the melting point was in the range of 97 to 99 °C.
As to `CC(C)NC(=C1Sc2ccccc2C1=O)c1ccccc1`, the melting point fell in the range of 112 to 113 °C.
On to `O=S1(=O)NCNc2c(Cl)cc(Cl)cc21`, for which the melting point is 149 to 151 °C.
As for `CCCCCCCCCCCCC(=O)NN`, the figure is 101 to 104 °C; as for `O=C1C(=O)c2ccc(Cl)cc2C2=C1SCC1(CCN(C(=O)c3cccc(Cl)c3)CC1)O2`, 125 to 130 °C.
In turn, `Oc1cccc2cnsc12` returned a melting point of 185 to 187 °C.
The molecule `CC(C)(C)c1cc(CCc2ccccc2NC(=O)NC2CCN(Cc3cc(F)cc(F)c3)CC2)cc(C(C)(C)C)c1O` yielded a melting point of 119 to 120 °C.
Molecule `CC(=O)Oc1c(N2CCCC2)c(=O)n(-c2ccccc2)c2ncccc12` showed a melting point of 197 to 200 °C.
Turning to `CN(C)C=C(C#N)C(=O)c1cccc(Oc2ccccc2)c1`, the melting point is 80 to 82 °C.
Molecule `CCCCC1CC(=O)C2(C)CCC3=C4CCC(=O)C=C4CCC3C12` (stereo not given) had a melting point of 159 to 161 °C.
As for `O=C1CCC(N2Cc3cc(CNC(=O)Nc4ccccc4)ccc3C2=O)C(=O)N1` (stereo not given), the figure is 243 to 245 °C.
The value for `Cc1oc2c(C)cc(C3CC(=O)OC(=O)C3)cc2c1C` was 170 °C; that for `CCOC(=O)CCN1CCC(OC(c2ccccc2)c2ccc(C)cc2)CC1` (stereo not given) was 101 to 104 °C.
